This is an account of results in patent publication US7687512B2, “Use of pyridinyl-pyrimidinylamino-benzamide derivatives for the treatment of amyloid related disorders” (Novartis AG, priority 2003, dated 2010).

For one series, the system named is Abeta secretion. The settings on record: HEK/APPswe cell cultures, at concentrations below 10 microM.
A further series relates to HEK/APPswe cells. The settings on record: HEK/APPswe cell cultures, at concentrations below 10 microM.

Procedure for Abeta secretion: HEK/APPswe cells are plated in microtiter plates precoated with 10 μg/ml poly-D-lysine at 12,000 cells/well in 100 μl/well DMEM medium supplemented with 10% FCS, 0.25 mg/ml G418 sulfate, 1% penicillin streptomycin. The following day, supernatant is replaced with 90 μl/well of fresh medium and 10 μl/well of compound diluted in culture medium are added. Two types of control wells are used: cell culture medium without cells plus 10 μl/well of all compound dilutions (background signals) and cell culture medium from untreated cells (positive control). 24 hours later after compound addition, conditioned medium is collected and Aβ levels determined by a specific sandwich ELISA.
For the sandwich ELISA, the maxisorp microtiterplates are coated overnight at 4° C. with 100 μl/well of the monoclonal antibody 25H10 diluted 1:1000 in PB for Aβ40 detection or monoclonal antibody B10E7 diluted 1:2750 for detection of Aβ42. […] After 1 hour incubation at room temperature wells are washed as described above and alkaline phosphatase activity is determined by adding 100 μl/well of diethanolamine buffer, pH 9.8 (100 mM diethanolamine, 1 mM MgCl2, pH adjusted to 9.8 with 2 M HCl) containing the chemiluminescent CSPD substrate (25 mM stock solution diluted 1:416) and the enhancer Emerald II (diluted 1:10). […] Samples are measured in triplicate. […]
Procedure for HEK/APPswe cells: To determine cytotoxicity, cells are tested by the MTS colorimetric kit performed essentially according to the manufacturer's specifications (Promega, #G5430X). After collecting the conditioned medium for the sandwich ELISA, the rest of the conditioned medium is removed completely and replaced with 100 μl/well culture medium containing one fifth of MTS solution prepared as recommended in the kit. After 3 hours incubation at 37° C., absorbance is read at an OD of 490 nm with a reference wavelength set to 630 nm. Values are given as % metabolic rate (n=6). The 0% value is calculated from wells which had no cells, 100% from wells with an untreated cell layer

Turning to `Cc1cn(-c2cc(NC(=O)c3ccc(C)c(Nc4nccc(-c5cccnc5)n4)c3)cc(C(F)(F)F)c2)cn1` [Example 2, 4-Methyl-N-[3-(4-methyl-imidazol-1-yl)-5-trifluoromethyl-phenyl]-3-(4-pyridin-3-yl-pyrimidin-2-ylamino)-benzamide], the “reduction of Abeta secretion in the medium” value in the series with Abeta secretion was “clear reduction”. The “effect on cellular viability” value in the series on HEK/APPswe cells is listed as “without having any effect”.
